Measurements as given in patent US8278442B2, “Bicyclic aryl and heteroaryl compounds for the treatment of metabolic disorders” (Prosidion Limited, priority 2007, dated 2012).

Experiments:
mu-opioid receptor [1] = target: T1, mu-opioid receptor (Homo sapiens, UniProt P35372); experiment: Competition binding assay (3H-DAMGO); settings: mu-opioid receptor expressing membranes, 0.5 nM 3H-DAMGO
Protocol: Competition Binding Assays
Mu-, kappa- or delta-opioid receptor expressing membranes (5-15 μg/well) were suspended in 50 mM Tris buffer pH 7.6 containing 5 mM MgCl2 and were incubated on 96-well plates with test compound or vehicle (1% DMSO) and either 0.5 nM ^3H-DAMGO, 0.8 nM ^3H—U-69,595 or 1.1 nM ^3H-DPDPE respectively in a total volume of 200 μL for 90 min at rt (22° C.). The contents of the wells were filtered and washed 5 times with chilled 50 mM Tris buffer pH 7.6 through H2O pre-soaked GF/B filters using a Perkin Elmer Filtermate. The filters were dried and upon application of scintillant the bound radioactive content for each well determined by scintillation counting in a Wallac TriLux Microbeta scintillation counter. Non-specific binding was determined in the presence of 2 μM Naloxone. IC50 values were determined by plotting log concentration test compound against specific binding and subsequent Ki values calculated.

mu-opioid receptor [2] = target: T1, mu-opioid receptor; experiment: GTPγS functional binding assay; type: biochemical; settings: mu-opioid receptor expressing membranes, agonist DAMGO 10 nM, 35S-GTPγS binding
Protocol: GTPγS Functional Binding Assays
Mu-, kappa- or delta-opioid receptor expressing membranes (5-20 μg/well) were suspended in 50 mM HEPES buffer pH 7.6 containing 3 mM MgCl2, 120 mM NaCl, 150 pM GTPγS, 10 μg/mL saponin and 3 μM GDP (μ-opioid receptor assay) or 5 μM GDP (κ- and δ-opioid receptor assay) and were pre-incubated on 96-well plates with test compound or vehicle (1% DMSO) in a total volume of 160 μL for 10 min at rt (22° C.). Specific agonists DAMGO (10 nM final concentration), U-50,488 (30 nM final concentration) or SNC-80 (10 nM final concentration) were added respectively and the plates pre-incubated for a further 15 min at rt (22° C.) ^35S-GTPγS at a final concentration in the assay of 150 pM was then added to provide a total volume per well of 200 μL and the plates incubated for 45 min at 30° C. The contents of the wells were filtered and washed 5 times with chilled 50 mM Tris buffer pH 7.6 through H2O pre-soaked GF/B filters using a Perkin Elmer Filtermate. The filters were dried and upon application of scintillant the bound radioactive content for each well determined by scintillation counting in a Wallac TriLux Microbeta scintillation counter. Non-specific binding was determined in the presence of 10 μM GTPγS. IC50 values were determined by plotting log concentration test compound against percentage increase over non-stimulated ^35S-GTPγS binding.

T1 sequence (P35372 whole entry, species assumed): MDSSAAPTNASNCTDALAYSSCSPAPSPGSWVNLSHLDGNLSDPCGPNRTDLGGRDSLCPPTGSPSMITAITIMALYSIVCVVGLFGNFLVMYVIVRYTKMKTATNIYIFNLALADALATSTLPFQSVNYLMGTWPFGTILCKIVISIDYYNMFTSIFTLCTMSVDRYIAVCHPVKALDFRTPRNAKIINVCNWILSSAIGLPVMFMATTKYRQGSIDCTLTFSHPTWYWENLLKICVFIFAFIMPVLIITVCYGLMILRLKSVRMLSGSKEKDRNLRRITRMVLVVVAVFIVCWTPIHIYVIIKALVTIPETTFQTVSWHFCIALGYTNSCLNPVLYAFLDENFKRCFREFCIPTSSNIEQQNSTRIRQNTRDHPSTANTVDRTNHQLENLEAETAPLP

- Ki (mu-opioid receptor [1]): < 100 nM
- IC50 (mu-opioid receptor [2]): < 100 nM
Structure (SMILES): NC(=O)c1ccc(Oc2ccc(CNC3CCOCC3)c3ccccc23)nc1 [Example 16, 6-{4-[(Tetrahydropyran-4-ylamino)methyl]naphthalen-1-yloxy}nicotinamide]
